Entries after “also recorded” stand apart in the source; their conditions may differ.
Legend:
[1] = test system: adult mice with global cerebral ischemia; conditions: single intraventricular injection of C3a 30 min prior to training, assessed 24 h later; cited from earlier work
synapsin I+ puncta = test: Synapsin I immunostaining of cortex 21 days after stroke; type: in vivo, mouse; conditions: for larger size of synapsin I+ puncta vs PBS-treated mice: ipsilesional motor cortex
Procedure: For immunofluorescent evaluation, sections were deparaffinized, heated three times for 5 min in a microwave oven in 0.01 M citric buffer (pH 6.0), and blocked in PBS containing 0.05% Tween-20 (Sigma) and 1% in Bovine serum albumin (BSA, Sigma) for GAP-43 and synapsin I staining, 3% normal goat serum for VGLUT1 staining or 4% normal donkey serum for GAP-43 double stainings. Goat anti-synapsin la/b antibody (1:150; Santa Cruz, sc-7379) was followed by biotin-conjugated donkey anti-goat immunoglobulin (Ig) secondary antibody (1:200; Jackson Research Lab, 705-065-147) and Cy3-conjugated streptavidin (1:100; Sigma). Guinea pig anti-VGLUT1 (1:500; Millipore, AB5905) was followed by Alexa Fluor 488 goat anti-guinea pig Ig (1:500; Molecular Probes, A11073). For single staining, mouse anti-GAP-43 antibody (1:1000; Millipore, MAB347), was followed by biotinylated rabbit anti-mouse Ig secondary antibody (1:200; Dako, E0354) and Cy3-conjugated streptavidin (1:100; Sigma). […]
Highest signal intensity single plane images of immunostained sections were obtained by laser scanning confocal microscope (LSM TCS SP2, Leica Microsystems, ×63/NA 1.3 objective for synapsin I and GAP-43; and LSM 700, Carl Zeiss for VGLUT1 ×40/NA 1.3) at 1024×1024 pixels resolution. […] Three standard sections per animal in 160 μm intervals were analysed. […]
Single-stained images were analysed using MetaMorph® software (Molecular Devices, ver. 2.8.5) to obtain number, average size and intensity of positive punctuate structures per image. […] An experimenter blinded to experimental group performed all image acquisitions and quantifications.

[2] = Body temperature monitoring for systemic anaphylactic response after intranasal C3a; type: in vivo, mouse
Procedure: Purified human C3a peptide (Complement Technologies) was diluted in sterile phosphate buffered saline (PBS) to a concentration of 200 nM and a total of 20 μl (10 μl/nostril; corresponding to approximately 1.13 μg/kg body weight) of peptide solution or PBS was given intranasally to awake, hand-restrained mice held in a supine position. Solutions were administered through a pipette tip, drop-wise in 5 μl portions divided by 1 min intervals to allow for absorption. C3a or PBS was given every 24 hours on days 7 to 21 post-stroke for the short-term study or on days 7 to 28 post-stroke for the long-term study. Mice were assigned to C3a or PBS treatment using randomization stratified by body weight to avoid potential confounding effects of body weight on behavioural performance. The investigators carrying out behavioural studies and analysing data were blinded to treatment group. For the assessment of potential systemic anaphylactic response due to intranasal C3a inoculation, body temperature was monitored using a rectal temperature probe (Harvard Apparatus) inserted approximately 4 mm into the rectum of awake mice restrained by the scruff. Baseline temperature was taken before intranasal administration and 5, 15, 30, 45 and 75 min after C3a or PBS administration.

[3] = test system: mice subjected to neonatal hypoxia-ischemia; conditions: single i.c.v. injection 1 h after HI, wild-type mice tested as adults (42 days later); not in C3aR−/− mice; cited from earlier work

C3a: Purified human C3a peptide (Complement Technologies), C3a receptor agonist, amino acid sequence SEQ ID NO: 1
amnesia induced by global cerebral ischemia [1]: ameliorate amnesia
increase in density of synapsin I+ puncta (synapsin I+ puncta; contralesional somatosensory cortex, P=0.030): 20%
larger size of synapsin I+ puncta vs PBS-treated mice (synapsin I+ puncta; deep layers, P<0.0001): 8.1%
larger size of synapsin I+ puncta vs PBS-treated mice (synapsin I+ puncta; superficial layers, P=0.0004): 9.7%
duration of the drop in body temperature ([2]; after intranasal C3a or PBS): 5 to 10 min
adverse or systemic effects of intranasal C3a ([2]; even after repeated administration, stroke studies): did not observe any adverse or systemic effects
adverse systemic response (hypersensitivity/anaphylaxis) to intranasal C3a ([2]; judged from body temperature): absence of an adverse systemic response
change in body temperature after intranasal administration ([2]; rectal probe, awake mice, baseline and 5, 15, 30, 45, 75 min after intranasal C3a, same seen with PBS): very small drop in body temperature
HI-induced cognitive/memory impairment after single intraventricular C3a [3]: prevented HI-induced cognitive impairment; also recorded: ameliorated memory impairment

Reference: US11266715B2, “C3A receptor agonists for use against ischemic brain injury, stroke, traumatic brain injury, spinal cord injury and neurodegenerative disorders” (priority 2016, dated 2022)
